# Data as given in patent US10722514B2 (FLX Bio, Inc., priority 2017, dated 2020).
# Where two headings read alike, the source gives them in different places.
# Molecular target: T1, recombinant full-length USP7 (Homo sapiens, UniProt Q93009)
# T1 construct: A 25 μl reaction volume containing recombinant full-length USP7 (62 pM)
# Experiment: USP7-mediated ubiquitin-rhodamine cleavage assay
# Type: biochemical
# Conditions: recombinant full-length USP7 62 pM, ubiquitin-rhodamine 100 nM, 1 hour reaction at room temperature
# Outline: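 Full-length recombinant USP7 (62 pM) in 20 mM HEPES pH 7.3, 150 mM NaCl, 1 mM TCEP, 125 μg/ml BSA, 1% DMSO, preincubated with compound 30 min at RT. Ubiquitin-rhodamine (100 nM final) cleaved 1 h at RT in the dark, stopped with acetic acid; rhodamine fluorescence read, IC50 by 4-parameter nonlinear fit.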
# [1] = 30-minute incubation with compound, read-out: Potency: USP7 IC50
# [2] = 30-minute pre-incubation, read-out: Potency (USP7 IC50)
# T1 sequence (Q93009 whole entry): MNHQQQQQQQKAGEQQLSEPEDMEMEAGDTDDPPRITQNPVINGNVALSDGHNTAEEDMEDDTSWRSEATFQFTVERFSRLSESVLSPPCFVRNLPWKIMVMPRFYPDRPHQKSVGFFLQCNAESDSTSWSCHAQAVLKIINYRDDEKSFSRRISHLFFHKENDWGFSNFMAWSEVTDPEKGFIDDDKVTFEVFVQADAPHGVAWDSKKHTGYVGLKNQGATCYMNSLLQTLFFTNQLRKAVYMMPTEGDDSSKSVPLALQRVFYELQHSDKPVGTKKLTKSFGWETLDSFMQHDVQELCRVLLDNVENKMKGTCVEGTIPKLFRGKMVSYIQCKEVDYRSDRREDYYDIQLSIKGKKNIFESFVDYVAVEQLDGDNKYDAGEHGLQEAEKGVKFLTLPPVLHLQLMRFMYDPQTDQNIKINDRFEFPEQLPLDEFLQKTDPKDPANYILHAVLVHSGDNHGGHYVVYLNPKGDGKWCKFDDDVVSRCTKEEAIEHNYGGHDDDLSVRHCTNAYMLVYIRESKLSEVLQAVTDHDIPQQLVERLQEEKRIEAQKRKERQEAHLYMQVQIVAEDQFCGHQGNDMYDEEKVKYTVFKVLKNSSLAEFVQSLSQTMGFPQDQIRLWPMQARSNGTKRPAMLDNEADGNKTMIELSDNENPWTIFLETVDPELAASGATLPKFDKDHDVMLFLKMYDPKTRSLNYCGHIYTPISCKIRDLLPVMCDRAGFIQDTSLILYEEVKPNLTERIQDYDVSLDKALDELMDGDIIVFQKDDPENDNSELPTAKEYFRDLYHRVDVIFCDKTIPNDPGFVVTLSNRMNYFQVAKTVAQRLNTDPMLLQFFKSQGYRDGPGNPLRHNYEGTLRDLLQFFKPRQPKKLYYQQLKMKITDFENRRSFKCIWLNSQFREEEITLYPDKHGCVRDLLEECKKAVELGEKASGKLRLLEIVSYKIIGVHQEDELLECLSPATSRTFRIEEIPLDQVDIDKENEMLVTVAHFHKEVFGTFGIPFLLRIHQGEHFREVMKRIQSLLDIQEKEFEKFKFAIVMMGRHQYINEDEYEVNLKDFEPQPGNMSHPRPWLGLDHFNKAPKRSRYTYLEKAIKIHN
SMILES,IC50 [1] [nM],IC50 [2] [nM],also measured
"CCN1CCC(Oc2c(C)cc(Cl)cc2-c2ccnc3cc(CN4C(=O)CCC4=O)sc23)CC1 [Example 176, 1-((7-(5-Chloro-2-((1-ethylpiperidin-4-yl)oxy)-3-methylphenyl)thieno[3,2-b]pyridin-2-yl)methyl)pyrrolidine-2,5-dione]",< 1000,,
"Cc1cc(Cl)cc(-c2ccnc3ccsc23)c1O[C@H]1CCCN(C)C1 [Example 240, (S)-7-(5-Chloro-3-methyl-2-((1-methylpiperidin-3-yl)oxy)phenyl)thieno[3,2-b]pyridine]",> 30000,,
"Cc1cc(Cl)cc(-c2ccnc3cc(Cn4c(=O)ccn(CC(F)(F)F)c4=O)sc23)c1O[C@H]1C[C@@H]2NCCO[C@@H]2C1 [Example 696, 3-[[7-[2-[[(4aS,6S,7aR)-2,3,4,4a,5,6,7,7a-octahydrocyclopenta[b][1,4]oxazin-6-yl]oxy]-5-chloro-3-methyl-phenyl]thieno[3,2-b]pyridin-2-yl]methyl]-1-(2,2,2-trifluoroethyl)pyrimidine-2,4-dione]",,,"IC50 (30-minute incubation, read-out: Potency (USP7 IC50)): < 1000 nM"
"Cc1cc(Cl)cc(-c2ncnc3cc(CN4C(=O)CN(C)C4=O)sc23)c1O[C@@H]1CNC[C@@H]1F [Example 146, 3-((4-(5-Chloro-2-(((3R,4S)-4-fluoropyrrolidin-3-yl)oxy)-3-methylphenyl)thieno[3,2-d]pyrimidin-6-yl)methyl)-1-methylimidazolidine-2,4-dione]",< 1000,,
"Cc1cc(Cl)cc(-c2ccnc3cc(Cn4c(=O)ccn(CC(F)(F)F)c4=O)sc23)c1O[C@@H]1CCNC[C@@H]1C [Example 173, 3-((7-(5-Chloro-3-methyl-2-(((3S,4R)-3-methylpiperidin-4-yl)oxy)phenyl)thieno[3,2-b]pyridin-2-yl)methyl)-1-(2,2,2-trifluoroethyl)pyrimidine-2,4(1H,3H)-dione]",< 1000,,
"Cc1cc(Cl)cc(-c2ccnc3c(F)c(CO)sc23)c1O[C@@H]1CNC[C@@H]1F [Example 156, (7-(5-Chloro-2-(((3R,4S)-4-fluoropyrrolidin-3-yl)oxy)-3-methylphenyl)-3-fluorothieno[3,2-b]pyridin-2-yl)methanol]",1000 to 10000,,
"Cc1cc(Cl)cc(-c2ccnc3cc(CO)sc23)c1OC1CC2(CNC2)C1 [Example 48, (7-(2-((2-Azaspiro[3.3]heptan-6-yl)oxy)-5-chloro-3-methylphenyl)thieno[3,2-b]pyridin-2-yl)methanol]",10000 to 30000,,
"Cc1cc(Cl)cc(-c2ccnc3cc(CN4C(=O)CCC4=O)sc23)c1OC1CNC(C)(C)C1 (stereo not shown) [Example 130, 1-((7-(5-Chloro-2-((5,5-dimethylpyrrolidin-3-yl)oxy)-3-methylphenyl)thieno[3,2-b]pyridin-2-yl)methyl)pyrrolidine-2,5-dione]",< 1000,,
"CO[C@@H]1CNC[C@@H]1Oc1c(C)cc(Cl)cc1-c1ccnc2cc(CO)sc12 [Example 66, (7-(5-Chloro-2-(((3S,4R)-4-methoxypyrrolidin-3-yl)oxy)-3-methylphenyl)thieno[3,2-b]pyridin-2-yl)methanol]",10000 to 30000,,
"Cc1cc(Cl)cc(-c2ccnc3cc(Cn4c(=O)ccn(C)c4=O)sc23)c1O[C@@H]1CC[C@@H](NCCO)C1 [Example 531, 3-[[7-[5-chloro-2-[(1R,3R)-3-(2-hydroxyethylamino)cyclopentoxy]-3-methyl-phenyl]thieno[3,2-b]pyridin-2-yl]methyl]-1-methyl-pyrimidine-2,4-dione; 2,2,2-trifluoroacetic acid]",,< 1000,
"O=C1CCC(=O)N1Cc1cc2nccc(-c3cc(Cl)cc(C(F)(F)F)c3O[C@@H]3CNC[C@@H]3F)c2s1 [Example 120, 1-((7-(5-Chloro-2-(((3R,4S)-4-fluoropyrrolidin-3-yl)oxy)-3-(trifluoromethyl)phenyl)thieno[3,2-b]pyridin-2-yl)methyl)pyrrolidine-2,5-dione]",< 1000,,
"CCc1cc(Cl)cc(-c2ccnc3cc(CO)sc23)c1OCC1CNC1 [Example 22, (7-(2-(Azetidin-3-ylmethoxy)-5-chloro-3-ethylphenyl)thieno[3,2-b]pyridin-2-yl)methanol]",1000 to 10000,,

# Now from value to molecule, other results behind:
IC50 [1] [nM],IC50 [2] [nM],SMILES,also measured
,< 1000,"Cc1cc(Cl)cc(-c2ncnc3cc(Cn4c(=O)ccn(CC(F)(F)F)c4=O)sc23)c1O[C@H]1CCCN(C)C1 [Example 521, 3-[[4-[5-chloro-3-methyl-2-[[(3S)-1-methyl-3-piperidyl]oxy]phenyl]thieno[3,2-d]pyrimidin-6-yl]methyl]-1-(2,2,2-trifluoroethyl)pyrimidine-2,4-dione]",
,< 1000,Cc1cc(Cl)cc(-c2ccnc3cc(Cn4c(=O)ccn(C)c4=O)sc23)c1OC1CC2CNC1C2 (stereo not shown) [Example 418],
< 1000,,"Cc1cc(Cl)cc(-c2ccnc3cc(Cn4c(=O)ccn(C)c4=O)sc23)c1OC1CCN(C2COC2)CC1 [Example 255, 3-((7-(5-Chloro-3-methyl-2-((1-(oxetan-3-yl)piperidin-4-yl)oxy)phenyl)thieno[3,2-b]pyridin-2-yl)methyl)-1-methylpyrimidine-2,4(1H,3H)-dione]",
< 1000,,"Cc1cc(Cl)cc(-c2ncnc3cc(CN4C(=O)C5C(C4=O)C5(C)C)sc23)c1OC1CCNC1(C)C (stereo not shown) [Example 370, 3-[[4-[5-chloro-2-(2,2-dimethylpyrrolidin-3-yl)oxy-3-methyl-phenyl]thieno[3,2-d]pyrimidin-6-yl]methyl]-6,6-dimethyl-3-azabicyclo[3.1.0]hexane-2,4-dione]",
< 1000,,"CCN1C[C@H](F)[C@H](Oc2c(C)cc(Cl)cc2-c2ccnc3cc(CN4C(=O)C5CC5C4=O)sc23)C1 (stereo partly drawn) [Example 310, 3-[[7-[5-chloro-2-[(3R,4S)-1-ethyl-4-fluoro-pyrrolidin-3-yl]oxy-3-methyl-phenyl]thieno[3,2-b]pyridin-2-yl]methyl]-3-azabicyclo[3.1.0]hexane-2,4-dione]",
,1000 to 10000,"Cc1cc(Cl)cc(-c2ccncc2CCCN2C(=O)CCC2=O)c1OC1CCNCC1 [Example 411, 1-[3-[4-[5-chloro-3-methyl-2-(4-piperidyloxy)phenyl]-3-pyridyl]propyl]pyrrolidine-2,5-dione; 2,2,2-trifluoroacetic acid]",
,< 1000,"Cc1cc(Cl)cc(-c2ccnc3cc(CN4C(=O)CCC4=O)sc23)c1OC1CCCNC1C (stereo not shown) [Example 419, 1-[[7-[5-chloro-3-methyl-2-[(2-methyl-3-piperidyl)oxy]phenyl]thieno[3,2-b]pyridin-2-yl]methyl]pyrrolidine-2,5-dione]",
,< 1000,"CO[C@H]1CC(=O)N(Cc2cc3nccc(-c4cc(Cl)cc(C)c4O[C@H]4CCCNC4)c3s2)C1=O [Example 421, (3S)-1-[[7-[5-chloro-3-methyl-2-[[(3S)-3-piperidyl]oxy]phenyl]thieno[3,2-b]pyridin-2-yl]methyl]-3-methoxy-pyrrolidine-2,5-dione; 2,2,2-trifluoroacetic acid]",
1000 to 10000,,"CCC(O)c1cc2nccc(-c3cc(Cl)cc(C)c3OC3CCNCC3)c2s1 (stereo not shown) [Example 261, 1-(7-(5-Chloro-3-methyl-2-(piperidin-4-yIoxy)phenyl)thieno[3,2-b]pyridin-2-yl)propan-1-ol]",
,< 1000,"Cc1cc(Cl)cc(-c2ccnc3cc(Cn4c(=O)ccn(C)c4=O)sc23)c1O[C@H]1CCNC[C@]1(C)F [Example 545, 3-[[7-[5-chloro-2-[[(3S,4S)-3-fluoro-3-methyl-4-piperidyl]oxy]-3-methyl-phenyl]thieno[3,2-b]pyridin-2-yl]methyl]-1-methyl-pyrimidine-2,4-dione; 2,2,2-trifluoroacetic acid]",
